Measured values from ChEMBL document CHEMBL5303766, “Data for DCP probe FHT-2344” (2022).

Columns and labels:
[1] = target: T1, MAP/microtubule affinity-regulating kinase 4 (Homo sapiens) (UniProt Q96L34); test: MARK4 SGC Tm panel (DSF); conditions: for ΔTm: Compound concentration 10.0 uM
T1 sequence (whole entry): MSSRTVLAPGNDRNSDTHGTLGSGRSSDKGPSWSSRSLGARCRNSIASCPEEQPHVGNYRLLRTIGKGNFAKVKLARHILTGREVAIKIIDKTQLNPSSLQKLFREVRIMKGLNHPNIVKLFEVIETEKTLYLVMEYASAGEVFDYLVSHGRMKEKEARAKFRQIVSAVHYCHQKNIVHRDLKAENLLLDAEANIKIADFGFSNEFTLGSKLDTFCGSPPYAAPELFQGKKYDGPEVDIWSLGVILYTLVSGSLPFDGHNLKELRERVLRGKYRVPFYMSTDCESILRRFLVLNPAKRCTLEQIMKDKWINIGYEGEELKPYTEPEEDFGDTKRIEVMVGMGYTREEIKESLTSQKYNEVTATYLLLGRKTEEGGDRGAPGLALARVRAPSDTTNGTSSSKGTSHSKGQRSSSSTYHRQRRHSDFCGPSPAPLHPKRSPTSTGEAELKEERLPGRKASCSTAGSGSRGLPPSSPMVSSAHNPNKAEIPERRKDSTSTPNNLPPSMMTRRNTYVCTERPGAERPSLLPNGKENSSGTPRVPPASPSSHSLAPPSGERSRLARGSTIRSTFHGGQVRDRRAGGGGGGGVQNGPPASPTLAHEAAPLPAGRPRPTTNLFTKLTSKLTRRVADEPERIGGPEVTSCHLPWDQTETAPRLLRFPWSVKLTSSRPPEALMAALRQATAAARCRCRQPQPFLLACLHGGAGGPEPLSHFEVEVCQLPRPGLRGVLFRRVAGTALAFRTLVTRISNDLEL

[2] = target: T2, Ferrochelatase, mitochondrial (Homo sapiens) (UniProt P22830); test: FECH SGC Tm panel (DSF); conditions: for ΔTm: Compound concentration 10.0 uM
T2 sequence (whole entry): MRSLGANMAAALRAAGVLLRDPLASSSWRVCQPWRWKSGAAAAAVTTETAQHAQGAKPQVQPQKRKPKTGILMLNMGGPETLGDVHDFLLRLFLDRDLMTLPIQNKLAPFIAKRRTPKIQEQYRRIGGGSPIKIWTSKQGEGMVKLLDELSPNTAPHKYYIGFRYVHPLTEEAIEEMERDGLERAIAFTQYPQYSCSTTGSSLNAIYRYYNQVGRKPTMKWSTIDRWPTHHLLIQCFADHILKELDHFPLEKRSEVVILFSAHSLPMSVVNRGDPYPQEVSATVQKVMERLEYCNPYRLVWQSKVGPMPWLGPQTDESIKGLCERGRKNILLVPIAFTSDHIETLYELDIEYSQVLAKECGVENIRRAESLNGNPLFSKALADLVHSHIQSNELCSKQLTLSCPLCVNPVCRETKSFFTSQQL

[3] = target: Histamine H3 receptor (Homo sapiens) (UniProt Q9Y5N1); conditions: Compound concentration 10.0 uM
[4] = target: GABA-A receptor; anion channel (Rattus norvegicus) (UniProt O09028+P15431+P18506+P18508+P19969+P20236+P23574+P23576+P28471+P28473+P30191+P62813+P63079+P63138+Q91ZM7+Q9ES14); conditions: Compound concentration 10.0 uM
[5] = target: 5-hydroxytryptamine receptor 1D (Homo sapiens) (UniProt P28221); conditions: Compound concentration 10.0 uM
Rattus norvegicus = species on record: Rattus norvegicus; conditions: Compound concentration 10.0 uM
[6] = target: Histamine H2 receptor (Homo sapiens) (UniProt P25021); conditions: Compound concentration 10.0 uM
[7] = target: T3, Serine/threonine-protein kinase 17B (Homo sapiens) (UniProt O94768); test: STK17B SGC Tm panel (DSF); conditions: for ΔTm: Compound concentration 10.0 uM
T3 sequence (whole entry): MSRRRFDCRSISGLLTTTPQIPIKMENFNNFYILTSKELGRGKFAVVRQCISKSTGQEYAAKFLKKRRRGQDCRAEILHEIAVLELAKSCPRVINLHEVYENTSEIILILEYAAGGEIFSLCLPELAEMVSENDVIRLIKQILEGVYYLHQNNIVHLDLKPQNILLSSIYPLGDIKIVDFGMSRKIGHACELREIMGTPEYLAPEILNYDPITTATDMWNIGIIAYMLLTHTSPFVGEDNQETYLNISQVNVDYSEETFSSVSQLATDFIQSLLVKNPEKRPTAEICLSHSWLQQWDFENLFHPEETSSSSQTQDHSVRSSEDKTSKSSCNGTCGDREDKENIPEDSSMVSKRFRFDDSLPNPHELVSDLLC

[8] = target: Casein kinase II subunit alpha (Homo sapiens) (UniProt P68400); test: CSNK2A1A SGC Tm panel (DSF); conditions: for ΔTm: Compound concentration 10.0 uM
[9] = target: Serine/threonine-protein kinase 26 (Homo sapiens) (UniProt Q9P289); test: MST4 SGC Tm panel (DSF); conditions: for ΔTm: Compound concentration 10.0 uM
[10] = target: Casein kinase I isoform delta (Homo sapiens) (UniProt P48730); test: CSNK1D SGC Tm panel (DSF); conditions: for ΔTm: Compound concentration 10.0 uM
[11] = target: Muscarinic acetylcholine receptor M2 (Homo sapiens) (UniProt P08172); conditions: Compound concentration 10.0 uM
[12] = target: T4, Serine/threonine-protein kinase 17A (Homo sapiens) (UniProt Q9UEE5); test: STK17A SGC Tm panel (DSF); conditions: for ΔTm: Compound concentration 10.0 uM
T4 sequence (whole entry): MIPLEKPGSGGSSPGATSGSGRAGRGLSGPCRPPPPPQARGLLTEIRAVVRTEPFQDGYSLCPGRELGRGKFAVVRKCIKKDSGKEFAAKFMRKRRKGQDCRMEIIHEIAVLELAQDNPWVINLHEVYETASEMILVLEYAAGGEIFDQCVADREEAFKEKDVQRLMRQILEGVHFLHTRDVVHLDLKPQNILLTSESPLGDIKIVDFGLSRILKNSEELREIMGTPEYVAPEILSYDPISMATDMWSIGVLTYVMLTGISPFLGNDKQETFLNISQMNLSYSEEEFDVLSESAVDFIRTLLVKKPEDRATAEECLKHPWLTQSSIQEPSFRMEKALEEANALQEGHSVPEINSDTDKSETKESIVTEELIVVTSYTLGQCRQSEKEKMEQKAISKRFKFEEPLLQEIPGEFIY

[13] = target: G protein-coupled receptor kinase 5 (Homo sapiens) (UniProt P34947); test: GPRK5 SGC Tm panel (DSF); conditions: for ΔTm: Compound concentration 10.0 uM
[14] = target: Cyclin-dependent kinase 2 (Homo sapiens) (UniProt P24941); test: CDK2 SGC Tm panel (DSF); conditions: for ΔTm: Compound concentration 10.0 uM
[15] = target: Vascular endothelial growth factor receptor 1 (Homo sapiens) (UniProt P17948); test: FLT1 SGC Tm panel (DSF); conditions: for ΔTm: Compound concentration 10.0 uM
Chain of Vascular endothelial growth factor receptor 1 (Homo sapiens) (P17948 whole entry): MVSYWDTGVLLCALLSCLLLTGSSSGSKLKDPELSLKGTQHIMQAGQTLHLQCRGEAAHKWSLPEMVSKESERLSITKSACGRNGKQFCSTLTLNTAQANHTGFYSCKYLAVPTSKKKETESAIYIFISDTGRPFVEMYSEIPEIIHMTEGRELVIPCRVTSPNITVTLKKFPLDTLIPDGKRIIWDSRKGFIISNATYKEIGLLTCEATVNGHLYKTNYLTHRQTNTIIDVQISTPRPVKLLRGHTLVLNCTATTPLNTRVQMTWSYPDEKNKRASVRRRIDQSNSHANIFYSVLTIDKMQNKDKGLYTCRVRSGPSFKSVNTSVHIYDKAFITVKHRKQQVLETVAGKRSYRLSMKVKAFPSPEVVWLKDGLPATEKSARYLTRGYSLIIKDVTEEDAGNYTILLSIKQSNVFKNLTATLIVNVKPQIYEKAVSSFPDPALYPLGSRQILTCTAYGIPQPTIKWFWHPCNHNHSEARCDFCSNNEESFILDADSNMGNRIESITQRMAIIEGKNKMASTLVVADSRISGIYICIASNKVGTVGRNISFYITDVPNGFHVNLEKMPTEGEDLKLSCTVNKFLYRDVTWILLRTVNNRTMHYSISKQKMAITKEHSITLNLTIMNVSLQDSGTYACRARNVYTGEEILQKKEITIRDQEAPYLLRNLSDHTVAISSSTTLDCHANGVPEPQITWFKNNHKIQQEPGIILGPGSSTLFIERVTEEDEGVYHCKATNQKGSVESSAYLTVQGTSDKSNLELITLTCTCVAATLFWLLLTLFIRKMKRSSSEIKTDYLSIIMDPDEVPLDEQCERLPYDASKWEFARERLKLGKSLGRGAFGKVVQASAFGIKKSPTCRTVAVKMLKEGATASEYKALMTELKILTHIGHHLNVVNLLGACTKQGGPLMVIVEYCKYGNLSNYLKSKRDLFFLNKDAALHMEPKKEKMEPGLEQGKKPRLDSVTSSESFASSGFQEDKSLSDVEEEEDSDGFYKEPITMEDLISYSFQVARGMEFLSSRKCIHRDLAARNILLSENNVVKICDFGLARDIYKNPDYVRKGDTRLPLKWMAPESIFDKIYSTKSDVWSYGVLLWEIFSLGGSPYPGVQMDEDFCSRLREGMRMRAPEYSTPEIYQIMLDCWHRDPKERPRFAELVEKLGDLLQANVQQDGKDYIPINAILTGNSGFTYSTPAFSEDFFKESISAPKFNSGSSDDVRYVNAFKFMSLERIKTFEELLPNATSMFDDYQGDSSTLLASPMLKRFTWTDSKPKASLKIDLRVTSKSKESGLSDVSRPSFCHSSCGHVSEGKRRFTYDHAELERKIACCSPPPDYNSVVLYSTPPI

Chain of Casein kinase I isoform delta (Homo sapiens) (P48730 whole entry, looked up, canonical isoform): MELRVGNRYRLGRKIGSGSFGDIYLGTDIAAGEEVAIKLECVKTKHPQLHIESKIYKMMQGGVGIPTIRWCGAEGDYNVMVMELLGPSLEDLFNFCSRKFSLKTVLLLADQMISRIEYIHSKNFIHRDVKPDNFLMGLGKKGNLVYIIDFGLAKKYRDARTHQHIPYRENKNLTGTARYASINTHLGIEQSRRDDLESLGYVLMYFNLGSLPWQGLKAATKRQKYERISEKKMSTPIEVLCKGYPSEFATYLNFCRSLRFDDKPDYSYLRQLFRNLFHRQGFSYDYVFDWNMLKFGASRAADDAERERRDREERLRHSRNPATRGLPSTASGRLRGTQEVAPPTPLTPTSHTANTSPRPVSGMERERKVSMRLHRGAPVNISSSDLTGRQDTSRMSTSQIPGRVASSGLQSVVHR
Chain of Casein kinase II subunit alpha (Homo sapiens) (P68400 whole entry, looked up): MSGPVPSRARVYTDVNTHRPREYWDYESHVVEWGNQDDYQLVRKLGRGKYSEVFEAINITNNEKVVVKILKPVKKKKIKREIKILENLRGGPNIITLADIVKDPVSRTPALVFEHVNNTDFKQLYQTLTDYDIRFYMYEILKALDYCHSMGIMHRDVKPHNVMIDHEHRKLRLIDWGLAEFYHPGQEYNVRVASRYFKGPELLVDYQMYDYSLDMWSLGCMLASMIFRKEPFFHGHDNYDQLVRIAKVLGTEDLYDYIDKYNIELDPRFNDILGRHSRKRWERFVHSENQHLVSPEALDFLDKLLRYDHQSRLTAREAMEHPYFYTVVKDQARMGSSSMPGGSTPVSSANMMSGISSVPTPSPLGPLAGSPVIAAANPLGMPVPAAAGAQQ
Chain of G protein-coupled receptor kinase 5 (Homo sapiens) (P34947 whole entry, looked up): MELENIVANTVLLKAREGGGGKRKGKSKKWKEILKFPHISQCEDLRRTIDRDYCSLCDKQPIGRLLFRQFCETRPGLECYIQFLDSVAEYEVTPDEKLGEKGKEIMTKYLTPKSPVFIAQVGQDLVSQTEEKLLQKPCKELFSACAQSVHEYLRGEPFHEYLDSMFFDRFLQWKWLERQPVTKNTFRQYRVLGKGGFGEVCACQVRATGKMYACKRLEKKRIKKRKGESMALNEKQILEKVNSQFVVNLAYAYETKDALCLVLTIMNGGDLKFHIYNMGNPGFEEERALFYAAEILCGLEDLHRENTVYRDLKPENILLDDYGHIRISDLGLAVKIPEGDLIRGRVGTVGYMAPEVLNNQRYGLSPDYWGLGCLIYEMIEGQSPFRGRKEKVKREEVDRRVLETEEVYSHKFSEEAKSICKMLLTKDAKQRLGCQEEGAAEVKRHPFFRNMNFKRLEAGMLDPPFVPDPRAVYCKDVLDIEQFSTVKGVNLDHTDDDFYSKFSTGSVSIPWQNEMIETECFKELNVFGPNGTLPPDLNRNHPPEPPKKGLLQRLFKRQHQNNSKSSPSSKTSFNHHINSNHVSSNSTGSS
Chain of Serine/threonine-protein kinase 26 (Homo sapiens) (Q9P289 2-416 limits assumed): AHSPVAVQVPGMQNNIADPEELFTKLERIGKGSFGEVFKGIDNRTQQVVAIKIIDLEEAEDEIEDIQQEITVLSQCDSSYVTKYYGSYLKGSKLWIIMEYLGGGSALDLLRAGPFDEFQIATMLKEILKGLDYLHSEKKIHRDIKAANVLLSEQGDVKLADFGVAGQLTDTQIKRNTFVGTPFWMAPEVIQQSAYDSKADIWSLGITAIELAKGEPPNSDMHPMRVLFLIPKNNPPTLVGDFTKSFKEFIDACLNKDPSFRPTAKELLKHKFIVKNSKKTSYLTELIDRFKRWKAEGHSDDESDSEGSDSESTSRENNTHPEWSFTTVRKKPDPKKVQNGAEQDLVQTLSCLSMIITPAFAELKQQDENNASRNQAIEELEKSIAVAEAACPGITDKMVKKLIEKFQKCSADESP
Chain of Histamine H3 receptor (Homo sapiens) (Q9Y5N1 whole entry): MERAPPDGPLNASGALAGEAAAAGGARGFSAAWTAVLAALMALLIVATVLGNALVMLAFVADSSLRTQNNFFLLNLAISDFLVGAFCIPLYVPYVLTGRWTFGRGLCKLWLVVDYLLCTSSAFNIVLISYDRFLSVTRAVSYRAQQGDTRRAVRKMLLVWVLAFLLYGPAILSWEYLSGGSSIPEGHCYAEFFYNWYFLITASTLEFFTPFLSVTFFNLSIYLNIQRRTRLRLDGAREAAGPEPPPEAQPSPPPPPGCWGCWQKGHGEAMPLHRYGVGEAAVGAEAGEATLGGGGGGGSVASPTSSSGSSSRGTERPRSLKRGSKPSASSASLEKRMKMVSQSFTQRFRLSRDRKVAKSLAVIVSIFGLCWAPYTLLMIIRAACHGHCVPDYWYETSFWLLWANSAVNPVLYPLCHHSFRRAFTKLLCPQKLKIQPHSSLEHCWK
Chain of Muscarinic acetylcholine receptor M2 (Homo sapiens) (P08172 whole entry): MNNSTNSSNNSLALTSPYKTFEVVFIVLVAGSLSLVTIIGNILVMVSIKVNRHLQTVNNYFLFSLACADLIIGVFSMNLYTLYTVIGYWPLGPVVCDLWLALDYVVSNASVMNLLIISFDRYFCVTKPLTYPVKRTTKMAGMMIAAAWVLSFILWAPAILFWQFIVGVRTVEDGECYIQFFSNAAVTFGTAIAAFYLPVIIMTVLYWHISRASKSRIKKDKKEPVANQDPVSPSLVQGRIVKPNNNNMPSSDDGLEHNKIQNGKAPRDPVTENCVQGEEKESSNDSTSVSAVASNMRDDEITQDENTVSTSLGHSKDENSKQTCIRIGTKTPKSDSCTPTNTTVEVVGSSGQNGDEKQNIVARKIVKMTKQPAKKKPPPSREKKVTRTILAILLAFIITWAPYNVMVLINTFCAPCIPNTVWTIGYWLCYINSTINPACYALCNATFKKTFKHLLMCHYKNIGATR
Chain of Histamine H2 receptor (Homo sapiens) (P25021 whole entry): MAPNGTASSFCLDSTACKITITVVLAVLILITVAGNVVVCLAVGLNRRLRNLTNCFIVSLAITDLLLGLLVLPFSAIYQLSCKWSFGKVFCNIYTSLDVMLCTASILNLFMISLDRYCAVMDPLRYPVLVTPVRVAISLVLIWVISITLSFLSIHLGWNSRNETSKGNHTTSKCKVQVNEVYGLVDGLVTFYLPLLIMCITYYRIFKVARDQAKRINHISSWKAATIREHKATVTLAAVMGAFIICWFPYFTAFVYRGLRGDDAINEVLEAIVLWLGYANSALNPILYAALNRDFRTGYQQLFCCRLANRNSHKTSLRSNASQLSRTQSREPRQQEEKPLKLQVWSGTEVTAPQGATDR
Chain of 5-hydroxytryptamine receptor 1D (Homo sapiens) (P28221 whole entry): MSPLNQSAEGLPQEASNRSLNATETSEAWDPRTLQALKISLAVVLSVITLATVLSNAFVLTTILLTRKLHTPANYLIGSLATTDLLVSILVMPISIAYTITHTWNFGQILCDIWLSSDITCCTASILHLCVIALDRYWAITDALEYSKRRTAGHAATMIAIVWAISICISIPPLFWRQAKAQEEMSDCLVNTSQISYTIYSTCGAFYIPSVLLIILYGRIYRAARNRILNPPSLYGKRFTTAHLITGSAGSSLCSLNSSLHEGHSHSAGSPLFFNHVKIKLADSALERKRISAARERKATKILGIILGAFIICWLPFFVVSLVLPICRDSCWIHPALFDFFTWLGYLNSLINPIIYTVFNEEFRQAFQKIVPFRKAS

delta Tm Staurosporine positive control [1] | ΔTm [1] | delta Tm Staurosporine positive control [2] | ΔTm [2] | inhibition [3] [%] | inhibition [4] [%] | inhibition [5] [%] | inhibition (Rattus norvegicus) [%] | inhibition [6] [%] | delta Tm Staurosporine positive control [7] | ΔTm [7] | delta Tm Staurosporine positive control [8] | ΔTm [8] | delta Tm Staurosporine positive control [9] | ΔTm [9] | delta Tm Staurosporine positive control [10] | ΔTm [10] | inhibition [11] [%] | delta Tm Staurosporine positive control [12] | ΔTm [12] | Compound | further results
15.8 | 0.492 | 1.69 | 0.0581 | 7.45 | 16 | 16.7 | 47.5 | 22.6 | 10 | -0.114 | 2.85 | -0.131 | 6.93 | -1.14 | 1.43 | 0.637 | 6.19 | 12.6 | 0.566 | COC[C@H](NC(=O)c1ccn(S(C)(=O)=O)c1)C(=O)Nc1nc(-c2cccc(-c3ccn(C)n3)c2)cs1 | delta Tm Staurosporine positive control [13]: 6.82; ΔTm [13]: 0.544; delta Tm Staurosporine positive control [14]: 15.5; ΔTm [14]: 0.601; delta Tm Staurosporine positive control [15]: 11.1; ΔTm [15]: -0.0497
15.8 | 0.462 | 1.69 | -0.558 | 0.34 | 31.5 | 36 | 64.6 | 4.24 | 10 | -12.2 | 2.85 | 0.0573 | 6.93 | -1.33 | 1.43 | 0.845 | 16.3 | 12.6 | 1.03 | C[C@H](NC(=O)c1cn(C2(C#N)CC2)cn1)C(=O)Nc1nc(-c2cccc(-c3ccn(C)n3)c2)cs1 | delta Tm Staurosporine positive control [13]: 6.82; ΔTm [13]: 0.226; delta Tm Staurosporine positive control [14]: 15.5; ΔTm [14]: 0.352; delta Tm Staurosporine positive control [15]: 11.1; ΔTm [15]: -0.217
